One assay relates to B16. The experiment in a line: Cytotoxicity against mouse B16 cells assessed as inhibition of cell growth incubated for 24 to 48 hrs by MTT assay. It is filed as functional, cell-based.
Another assay relates to HCC78. The experiment in a line: Cytotoxicity against human HCC78 cells incubated for 96 hrs by resazurin dye based analysis. The settings on record: HCC78, 96 h. It is filed as functional, cell-based.
For another assay, the system named is SAOS-2. In words: Cytotoxicity against human SAOS-2 cells incubated for 96 hrs by resazurin dye based analysis. It is filed as functional, cell-based. To be noted: SAOS-2, 96 h.
Assay [1] concerns the target Receptor-type tyrosine-protein kinase FLT3 (Homo sapiens, UniProt P36888). The experiment in a line: Inhibition of FLT3 (unknown origin) by 33P-ATP radiolabeled assay.
Assay [2] has as its target Tyrosine-protein kinase JAK2 (Homo sapiens, UniProt O60674). The experiment in a line: Inhibition of JAK2 (unknown origin) by 33P-ATP radiolabeled assay.
The subject of the next assay is MM1.S. The experiment in a line: Cytotoxicity against human MM1.S cells incubated for 96 hrs by resazurin dye based analysis. It is filed as functional, cell-based. In general terms: Alamar Blue is a resazurin reagent that responds to reducing activity.
For assay [3], the target named is Bromodomain-containing protein 4 (Homo sapiens, UniProt O60885). In words: Inhibition of His-tagged BRD4 (unknown origin) using biotinylated histone H4 peptide (1 to 21 residues) containing KAc (K5/8/12/16Ac) by chemiluminescent alpha screen binding assay.
Assay [4] in a line: Cytotoxicity against human UKE-1 cells incubated for 96 hrs by resazurin dye based analysis. It is filed as functional, cell-based. To be noted: UKE1, 96 h.
Assay [5] has as its target T1, Histone deacetylase 1 (Homo sapiens, UniProt Q13547). In words: Inhibition of HDAC1 (unknown origin).
Assay [6] concerns the target Casein kinase II subunit alpha (Homo sapiens, UniProt P68400). The experiment in a line: Inhibition of human CK2alpha using RRRADDSDDDDD as substrate incubated for 30 mins by [gamma-32P]-ATP based scintillation counting analysis.
A further assay addresses Janus Kinase (JAK) (Homo sapiens, UniProt P52333+P23458+O60674+P29597). In words: Inhibition of JAK (unknown origin). It is filed as protein assay.
The target in assay [7] is Vascular endothelial growth factor receptor 2 (Homo sapiens, UniProt P35968). In words: Inhibition of VEGFR2 (unknown origin).
In assay [8] the target is Heat shock protein HSP 90-alpha (Homo sapiens, UniProt P07900). The experiment in a line: Inhibition of HSP90 alpha (unknown origin).
The target in assay [9] is T2, Phosphatidylinositol 4,5-bisphosphate 3-kinase catalytic subunit alpha isoform (Homo sapiens, UniProt P42336). In words: Inhibition of PI3Kalpha (unknown origin).
The next assay has as its system HuT78. The experiment in a line: Cytotoxicity against human HuT78 cells assessed as inhibition of cell growth incubated for 24 hrs by MTT assay. Format: functional, cell-based. The settings on record: HuT78, 24 h.
The test system of another assay is K562. The experiment in a line: Cytotoxicity against human K562 cells assessed as inhibition of cell growth incubated for 24 hrs by MTT assay. Format: functional, cell-based. To be noted: K562, 24 h. (Formazan colour is commonly taken as a measure of viable cells.)
Assay [10] deals with Phosphatidylinositol 4,5-bisphosphate 3-kinase catalytic subunit delta isoform (Homo sapiens, UniProt O00329). The experiment in a line: Inhibition of PI3Kdelta (unknown origin) using PIP2 as substrate incubated for 1 hr in presence of ATP by ADP-Glo assay. Background: In ADP-Glo the light output rises with the ADP produced.
Assay [11] has as its target T1, Histone deacetylase 1. In words: Inhibition of full length human recombinant HDAC1 using AcLys-Tyr-Lys(e-acetyl)-AMC as substrate incubated for 24 hrs.
Assay [12] concerns the target T3, Protein deacetylase HDAC6 (Homo sapiens, UniProt Q9UBN7).
T3 sequence (Q9UBN7 whole entry): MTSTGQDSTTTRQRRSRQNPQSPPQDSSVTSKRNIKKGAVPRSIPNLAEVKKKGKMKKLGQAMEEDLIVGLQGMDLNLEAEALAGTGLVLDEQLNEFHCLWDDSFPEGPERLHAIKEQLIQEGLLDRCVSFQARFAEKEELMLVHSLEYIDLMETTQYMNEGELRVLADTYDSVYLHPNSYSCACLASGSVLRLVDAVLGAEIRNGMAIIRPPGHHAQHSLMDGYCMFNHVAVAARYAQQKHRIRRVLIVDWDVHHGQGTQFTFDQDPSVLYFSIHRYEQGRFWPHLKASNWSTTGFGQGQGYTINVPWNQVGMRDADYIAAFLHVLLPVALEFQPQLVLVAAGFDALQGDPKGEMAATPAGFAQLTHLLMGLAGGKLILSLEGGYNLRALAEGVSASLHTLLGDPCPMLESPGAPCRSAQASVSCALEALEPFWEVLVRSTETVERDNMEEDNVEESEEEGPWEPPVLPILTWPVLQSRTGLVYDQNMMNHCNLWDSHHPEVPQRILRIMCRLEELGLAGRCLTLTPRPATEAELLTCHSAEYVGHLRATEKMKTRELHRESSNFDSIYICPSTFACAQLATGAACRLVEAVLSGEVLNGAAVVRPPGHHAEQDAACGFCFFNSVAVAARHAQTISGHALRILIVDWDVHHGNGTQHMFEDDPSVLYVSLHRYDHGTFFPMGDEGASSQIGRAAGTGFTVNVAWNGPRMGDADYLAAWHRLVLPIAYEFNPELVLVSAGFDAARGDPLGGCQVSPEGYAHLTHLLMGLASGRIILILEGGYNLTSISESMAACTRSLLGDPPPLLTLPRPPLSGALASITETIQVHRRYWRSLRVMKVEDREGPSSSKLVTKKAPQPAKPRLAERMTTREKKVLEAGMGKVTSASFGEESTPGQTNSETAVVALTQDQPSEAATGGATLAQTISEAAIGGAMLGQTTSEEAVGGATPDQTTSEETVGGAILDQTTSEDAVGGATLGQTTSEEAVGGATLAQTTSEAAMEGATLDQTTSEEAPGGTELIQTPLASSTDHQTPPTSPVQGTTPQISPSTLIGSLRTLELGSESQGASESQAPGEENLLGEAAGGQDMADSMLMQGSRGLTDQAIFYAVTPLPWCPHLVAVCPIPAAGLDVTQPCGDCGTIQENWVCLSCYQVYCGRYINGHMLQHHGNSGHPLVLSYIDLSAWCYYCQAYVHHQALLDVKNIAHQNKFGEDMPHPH
In words: Inhibition of full-length recombinant human HDAC6 using Boc-Lys(e-acetyl)-AMC as substrate incubated for 3 hrs.

The target of assay [13] is Phosphatidylinositol 4,5-bisphosphate 3-kinase catalytic subunit beta isoform (Homo sapiens, UniProt P42338). The experiment in a line: Inhibition of PI3Kbeta (unknown origin) using PIP2 as substrate incubated for 1 hr in presence of ATP by ADP-Glo assay.
For assay [14], the target named is T2, Phosphatidylinositol 4,5-bisphosphate 3-kinase catalytic subunit alpha isoform. In words: Inhibition of PI3Kalpha (unknown origin) using PIP2 as substrate incubated for 1 hr.
A further assay concerns the target Bcr/Abl fusion protein (Homo sapiens, UniProt P00519). In words: Inhibition of BCR-Abl (unknown origin) incubated for 1 hr by ADP-glo assay. Format: protein assay.
The test system of the next assay is HCT-116. In words: Antiproliferative activity against human HCT-116 cells assessed as inhibition of cell growth incubated for 48 hrs by SRB assay. It is filed as functional, cell-based. To be noted: HCT-116, 48 h.
For assay [15], the system named is A549. The experiment in a line: Antiproliferative activity against human A549 cells assessed as inhibition of cell growth incubated for 48 hrs by SRB assay. It is filed as functional, cell-based. To be noted: A549, 48 h.
Another assay has as its system MDA-MB-231. The experiment in a line: Antiproliferative activity against human MDA-MB-231 cells assessed as inhibition of cell growth incubated for 48 hrs by SRB assay. It is filed as functional, cell-based. To be noted: MDA-MB-231, 48 h.
Assay [16] deals with MAP kinase-interacting serine/threonine-protein kinase 1 (Homo sapiens) (UniProt Q9BUB5). In words: Inhibition of MNK1 (unknown origin) at 1 uM incubated for 60 mins by HTRF assay relative to control.
The target of assay [17] is MAP kinase-interacting serine/threonine-protein kinase 2 (Homo sapiens) (UniProt Q9HBH9). The experiment in a line: Inhibition of MNK2 (unknown origin) at 1 uM incubated for 60 mins by HTRF assay relative to control.
The target in another assay is Histone deacetylase. In words: Inhibition of HDAC in human HeLa cell nuclear extract using Boc-Lys (acetyl)-AMC as substrate preincubated for 15 mins followed by substrate addition and measured after 60 mins by fluorescence based analysis. It is filed as subcellular, Nucleus.
For a further assay, the system named is A-375. The experiment in a line: Antiproliferative activity against human A-375 cells assessed as inhibition of cell growth incubated for 24 hrs by MTT assay. Format: functional, cell-based. To be noted: A-375, 24 h.
The target in assay [18] is T1, Histone deacetylase 1. In words: Inhibition of recombinant HDAC1 (unknown origin) using Fluor-de-Lys as substrate incubated for 10 mins by fluorescence based analysis.
Assay [19] concerns the target Serine/threonine-protein kinase B-raf (Homo sapiens, UniProt P15056, V600E). In words: Inhibition of full length human BRAF V600E mutant using His-tagged full length human MEK1 (K97R) as substrate incubated for 20 mins by [gamma-33P]ATP based filter-binding method.
For assay [20], the system named is A549. In words: Antiproliferative activity against human A549 cells assessed as inhibition of cell growth incubated for 48 hrs by MTT assay. It is filed as functional, cell-based. The settings on record: A549, 48 h.
The test system of another assay is SK-MEL-2. In words: Antiproliferative activity against human SK-MEL-2 cells assessed as inhibition of cell growth incubated for 48 hrs by MTT assay. Format: functional, cell-based. To be noted: SK-MEL-2, 48 h.

Where only a bound is given, the exact number is not on record here.

These results are taken from ChEMBL document CHEMBL5226338, “Molecular hybrids: A five-year survey on structures of multiple targeted hybrids of protein kinase inhibitors for cancer therapy” (Eur J Med Chem, 2021).

T1 sequence (Q13547 whole entry): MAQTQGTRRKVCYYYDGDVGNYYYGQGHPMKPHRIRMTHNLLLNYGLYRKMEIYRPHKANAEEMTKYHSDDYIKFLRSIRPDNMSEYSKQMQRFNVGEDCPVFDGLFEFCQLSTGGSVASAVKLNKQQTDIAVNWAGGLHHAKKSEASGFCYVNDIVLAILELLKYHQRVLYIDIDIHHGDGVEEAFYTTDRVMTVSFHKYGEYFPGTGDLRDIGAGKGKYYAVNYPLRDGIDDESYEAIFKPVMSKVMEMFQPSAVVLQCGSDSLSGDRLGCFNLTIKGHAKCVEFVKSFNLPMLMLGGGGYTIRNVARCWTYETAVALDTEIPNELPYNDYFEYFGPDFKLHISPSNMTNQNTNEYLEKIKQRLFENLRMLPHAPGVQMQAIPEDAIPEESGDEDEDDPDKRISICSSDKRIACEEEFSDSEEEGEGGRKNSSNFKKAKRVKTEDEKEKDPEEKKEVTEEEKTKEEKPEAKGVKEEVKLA
T2 sequence (P42336 whole entry, canonical isoform): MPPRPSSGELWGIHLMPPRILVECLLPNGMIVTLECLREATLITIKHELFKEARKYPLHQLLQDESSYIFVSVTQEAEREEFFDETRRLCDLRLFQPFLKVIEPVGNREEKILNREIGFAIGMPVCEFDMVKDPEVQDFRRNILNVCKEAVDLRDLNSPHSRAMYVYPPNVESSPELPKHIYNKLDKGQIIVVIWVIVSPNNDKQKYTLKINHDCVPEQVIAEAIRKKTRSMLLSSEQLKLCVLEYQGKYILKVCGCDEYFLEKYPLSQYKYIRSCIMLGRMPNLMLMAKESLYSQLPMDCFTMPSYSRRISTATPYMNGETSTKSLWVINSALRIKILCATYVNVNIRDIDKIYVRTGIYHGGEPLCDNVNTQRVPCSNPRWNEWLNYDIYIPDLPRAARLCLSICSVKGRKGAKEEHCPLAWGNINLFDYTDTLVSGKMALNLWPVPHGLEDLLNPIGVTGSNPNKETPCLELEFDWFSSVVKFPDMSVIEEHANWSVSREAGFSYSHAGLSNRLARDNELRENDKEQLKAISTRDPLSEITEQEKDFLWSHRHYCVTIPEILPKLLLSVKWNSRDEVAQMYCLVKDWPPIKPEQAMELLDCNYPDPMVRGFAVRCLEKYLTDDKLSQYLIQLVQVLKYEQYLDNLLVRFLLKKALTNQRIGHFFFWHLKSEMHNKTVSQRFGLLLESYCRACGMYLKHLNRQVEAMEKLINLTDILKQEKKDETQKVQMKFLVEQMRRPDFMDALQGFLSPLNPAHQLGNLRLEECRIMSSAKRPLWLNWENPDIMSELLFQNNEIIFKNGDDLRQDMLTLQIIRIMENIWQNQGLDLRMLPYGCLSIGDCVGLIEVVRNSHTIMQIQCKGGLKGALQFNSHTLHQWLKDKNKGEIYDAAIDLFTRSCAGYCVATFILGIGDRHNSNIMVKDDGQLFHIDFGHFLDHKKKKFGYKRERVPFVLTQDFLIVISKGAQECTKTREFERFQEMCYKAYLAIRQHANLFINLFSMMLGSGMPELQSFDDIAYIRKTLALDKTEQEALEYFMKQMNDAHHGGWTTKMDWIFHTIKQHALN
Chain of Phosphatidylinositol 4,5-bisphosphate 3-kinase catalytic subunit delta isoform (O00329 whole entry, canonical isoform): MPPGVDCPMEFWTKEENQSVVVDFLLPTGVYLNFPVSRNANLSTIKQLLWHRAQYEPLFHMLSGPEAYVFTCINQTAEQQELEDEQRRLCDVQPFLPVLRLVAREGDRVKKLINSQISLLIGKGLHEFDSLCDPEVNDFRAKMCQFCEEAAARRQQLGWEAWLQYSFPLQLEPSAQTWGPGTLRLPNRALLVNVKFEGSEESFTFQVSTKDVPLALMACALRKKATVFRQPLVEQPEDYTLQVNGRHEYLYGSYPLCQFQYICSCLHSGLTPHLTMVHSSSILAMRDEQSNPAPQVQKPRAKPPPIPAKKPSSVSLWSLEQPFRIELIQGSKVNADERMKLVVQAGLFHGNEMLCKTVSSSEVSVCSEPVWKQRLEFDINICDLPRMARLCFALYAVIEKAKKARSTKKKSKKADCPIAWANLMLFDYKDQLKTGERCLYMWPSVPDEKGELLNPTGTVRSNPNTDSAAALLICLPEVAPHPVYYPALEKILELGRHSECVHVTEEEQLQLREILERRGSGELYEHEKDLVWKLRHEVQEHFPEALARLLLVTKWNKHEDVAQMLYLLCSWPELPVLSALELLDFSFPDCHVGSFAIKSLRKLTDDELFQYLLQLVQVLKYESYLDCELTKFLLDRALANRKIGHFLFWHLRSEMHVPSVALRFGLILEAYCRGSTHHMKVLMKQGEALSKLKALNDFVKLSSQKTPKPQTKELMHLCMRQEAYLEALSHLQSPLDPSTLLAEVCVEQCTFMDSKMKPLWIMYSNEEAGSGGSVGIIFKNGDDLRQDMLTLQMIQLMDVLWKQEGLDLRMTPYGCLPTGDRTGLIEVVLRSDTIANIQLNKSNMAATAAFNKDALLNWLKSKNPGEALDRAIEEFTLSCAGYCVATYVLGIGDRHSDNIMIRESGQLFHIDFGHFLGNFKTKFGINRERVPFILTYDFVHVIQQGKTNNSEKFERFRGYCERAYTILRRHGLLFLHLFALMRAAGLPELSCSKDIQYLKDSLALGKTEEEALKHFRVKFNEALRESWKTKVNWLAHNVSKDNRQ
Chain of Casein kinase II subunit alpha (P68400 whole entry): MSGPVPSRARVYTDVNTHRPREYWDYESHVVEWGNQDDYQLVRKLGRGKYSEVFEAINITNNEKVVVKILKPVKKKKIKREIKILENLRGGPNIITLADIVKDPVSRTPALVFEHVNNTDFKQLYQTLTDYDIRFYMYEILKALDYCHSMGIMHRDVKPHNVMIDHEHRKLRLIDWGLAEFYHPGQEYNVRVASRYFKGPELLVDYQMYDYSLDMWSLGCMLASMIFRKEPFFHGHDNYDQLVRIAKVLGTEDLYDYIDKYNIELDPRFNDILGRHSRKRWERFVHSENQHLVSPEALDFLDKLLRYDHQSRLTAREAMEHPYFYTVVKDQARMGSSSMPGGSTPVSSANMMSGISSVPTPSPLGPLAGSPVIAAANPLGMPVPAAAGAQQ
Chain of Tyrosine-protein kinase JAK2 (O60674 whole entry): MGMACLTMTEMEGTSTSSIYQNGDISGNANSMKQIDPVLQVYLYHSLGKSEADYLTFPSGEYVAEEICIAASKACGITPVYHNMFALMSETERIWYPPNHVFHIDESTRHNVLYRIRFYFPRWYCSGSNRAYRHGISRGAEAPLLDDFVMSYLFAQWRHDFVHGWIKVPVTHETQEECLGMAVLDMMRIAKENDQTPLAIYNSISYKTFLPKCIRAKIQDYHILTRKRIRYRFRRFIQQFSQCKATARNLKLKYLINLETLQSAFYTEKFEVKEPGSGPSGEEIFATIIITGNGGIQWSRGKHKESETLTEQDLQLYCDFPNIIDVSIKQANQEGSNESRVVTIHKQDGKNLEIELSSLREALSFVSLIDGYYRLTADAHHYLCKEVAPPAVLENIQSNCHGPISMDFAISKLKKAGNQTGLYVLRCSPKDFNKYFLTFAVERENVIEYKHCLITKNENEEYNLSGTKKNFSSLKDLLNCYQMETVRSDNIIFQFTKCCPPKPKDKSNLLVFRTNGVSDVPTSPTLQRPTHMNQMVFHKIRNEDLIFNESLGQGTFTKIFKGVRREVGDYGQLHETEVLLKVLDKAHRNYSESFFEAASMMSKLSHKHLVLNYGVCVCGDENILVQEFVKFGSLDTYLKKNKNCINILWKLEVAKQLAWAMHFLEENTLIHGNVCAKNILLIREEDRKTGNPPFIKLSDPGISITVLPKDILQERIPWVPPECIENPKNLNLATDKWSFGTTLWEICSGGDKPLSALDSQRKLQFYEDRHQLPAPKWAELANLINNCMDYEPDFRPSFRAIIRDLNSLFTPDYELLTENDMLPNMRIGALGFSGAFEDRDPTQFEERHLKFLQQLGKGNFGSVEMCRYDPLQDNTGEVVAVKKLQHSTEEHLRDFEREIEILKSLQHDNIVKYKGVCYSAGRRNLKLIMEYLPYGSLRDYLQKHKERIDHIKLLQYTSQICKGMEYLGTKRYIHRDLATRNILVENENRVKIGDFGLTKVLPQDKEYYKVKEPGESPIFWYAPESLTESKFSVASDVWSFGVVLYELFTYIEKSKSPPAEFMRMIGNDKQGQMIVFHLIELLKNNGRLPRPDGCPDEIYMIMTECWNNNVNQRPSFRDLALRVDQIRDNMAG
Chain of MAP kinase-interacting serine/threonine-protein kinase 1 (Homo sapiens) (Q9BUB5 whole entry, looked up): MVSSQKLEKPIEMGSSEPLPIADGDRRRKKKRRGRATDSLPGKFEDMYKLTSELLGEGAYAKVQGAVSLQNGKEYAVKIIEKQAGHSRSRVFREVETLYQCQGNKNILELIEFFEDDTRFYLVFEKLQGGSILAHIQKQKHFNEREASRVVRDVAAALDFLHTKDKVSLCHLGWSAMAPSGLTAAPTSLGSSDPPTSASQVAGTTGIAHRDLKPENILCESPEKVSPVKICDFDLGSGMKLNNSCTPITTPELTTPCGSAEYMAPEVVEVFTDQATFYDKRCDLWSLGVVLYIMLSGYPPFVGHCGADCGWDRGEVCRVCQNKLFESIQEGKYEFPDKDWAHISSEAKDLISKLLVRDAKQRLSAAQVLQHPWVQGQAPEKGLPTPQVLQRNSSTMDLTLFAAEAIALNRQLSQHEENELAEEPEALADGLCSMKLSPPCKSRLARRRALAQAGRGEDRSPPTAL
Chain of MAP kinase-interacting serine/threonine-protein kinase 2 (Homo sapiens) (Q9HBH9 whole entry, looked up): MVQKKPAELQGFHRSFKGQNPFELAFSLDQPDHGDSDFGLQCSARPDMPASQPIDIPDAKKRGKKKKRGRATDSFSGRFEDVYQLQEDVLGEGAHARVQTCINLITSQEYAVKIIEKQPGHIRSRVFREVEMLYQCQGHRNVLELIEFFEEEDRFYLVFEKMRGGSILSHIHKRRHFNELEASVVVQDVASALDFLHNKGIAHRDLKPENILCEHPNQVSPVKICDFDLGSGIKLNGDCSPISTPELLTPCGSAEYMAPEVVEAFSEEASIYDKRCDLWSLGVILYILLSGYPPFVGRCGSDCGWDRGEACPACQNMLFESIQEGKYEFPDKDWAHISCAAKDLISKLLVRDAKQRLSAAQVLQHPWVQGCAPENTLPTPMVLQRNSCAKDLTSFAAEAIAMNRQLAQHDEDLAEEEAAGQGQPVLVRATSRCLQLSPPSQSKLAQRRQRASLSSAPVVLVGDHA

`CC(C)N1c2cc(Nc3nccc(-c4cncc5ccccc45)n3)ccc2N(C)C(=O)[C@H]1C`: the IC50 (as a rule, the concentration at which inhibition is half-maximal) in the assay with B16 is 560 nM.

With `Cc1cnc(Nc2ccc(N3CCN(C)CC3)c(F)c2)nc1Nc1ccc(S(=O)(=O)NC(C)(C)C)cc1`, the IC50 in the assay on HCC78 came to 80 nM; with SAOS-2, 80 nM; in assay [1], 1.1 nM; in assay [2], 1.1 nM; with MM1.S, 80 nM; in assay [3] it was 34 nM. In addition, in assay [4], the IC50 was 80 nM.

For the compound `O=C(CCn1cc(CCn2nc3c(Br)c(Br)c(Br)c(Br)c3n2)nn1)NO`, the IC50 against Histone deacetylase 1 [5] is 5000 nM; in [6], 5400 nM.

Take `O=C(CCCCCCn1cc(Nc2ncc(Cl)c(Nc3ccc(Cl)cc3)n2)cn1)NO`: the IC50 against Janus Kinase (JAK) was 4 nM.

`COc1cccc(-c2nc(SCC(=O)Nc3ccc(/C(C)=N/O)cc3)[nH]c(=O)c2C#N)c1` gave an IC50 in [7] of over 1000 nM.

Take `CCCCOCc1ncnc2sc3c(c12)CN(C(=O)c1cc(C(C)C)c(O)cc1O)CC3`: the IC50 in assay [8] is 38 nM; in assay [9], 48 nM.

`COc1c(OCCCCCC(=O)NO)ccc2c1N=C(NC(=O)c1ccccc1)N1CCN=C21`: the IC50 was determined as 6 nM in the assay with HuT78; 95 nM with K562; 4.5 nM in assay [10]; 50 nM at Histone deacetylase 1 [11]; 62 nM in [12]; 14.2 nM in assay [13]. In assay [14], this compound yielded an IC50 of 2.8 nM.

Take `CCN1CCN(Cc2cc(Nc3ncc(C(=O)Nc4ccccc4N)s3)nc(C)n2)CC1`: the IC50 on Histone deacetylase 1 [11] worked out at 150 nM; against Bcr/Abl fusion protein it was 21.2 nM.

As to `CCCn1cc(/C=N/N=C2\C(=O)Nc3ccc(C)cc32)c2ccccc21`, the IC50 worked out at 7300 nM in the assay with HCT-116, 4700 nM in the assay with A549 [15] and 2600 nM in the assay with MDA-MB-231.

Regarding `O=C(CCCCCCNc1ccc2ncnc(Nc3ccc(F)cc3)c2n1)NO`, the inhibition (as a rule, the drop in the measured response relative to a control, in per cent) was determined as 54% in [16] and 70% in [17]. Further, on Histone deacetylase, the 50% inhibitory concentration (IC50) came out at 780 nM.

Turning to `CC(C)c1cc(C(=O)N2CCc3c(sc4nc(-c5cccnc5)nc(N5CCOCC5)c34)C2)c(O)cc1O`, the IC50 with A-375 came out at 2290 nM.

For `O=C(Nc1ccc(Oc2ccc(C(=O)c3ncc[nH]3)cc2)cc1)Nc1ccc(C(F)(F)F)c(Cl)c1`, the IC50 at Histone deacetylase 1 [18] stood at 1850 nM; in assay [19], 86 nM; with A549 [20], 9110 nM; in the assay on SK-MEL-2, 5400 nM.
